# Patent US11969425B2, “Inhibitor of indoleamine-2,3-dioxygenase (IDO)” (InventisBio LLC, priority 2016, dated 2024)
# Read-outs that look alike come from different tables or passages of the source.
# Key:
# [1] = Human hepatocyte clearance study; assay type: in vitro ADME; conditions: pooled cryopreserved human hepatocytes (suspension); for CLint scaled at 1 µM: human, scaled up from in vitro t1/2, scaling factor 2544.3, read-out: Human Scale-up Clint; for hepatocyte CLint at 1 µM / half-life at 1 µM: pooled human hepatocytes; for hepatocyte CLint at 1 µM: read-out: Human In vitro Clint (μL/min/10^6 cells); for half-life at 1 µM: read-out: Human In vitro T1/2
# Description: (§1) The in vitro human hepatocyte clearance of compounds described here was studied using pooled human hepatocytes purchased from BioreclamationIVT (Westbury, NY, Cat #X008001, Lot #TQJ). The assay was conducted according to manufacture's instruction. Briefly, 10 mM stock solutions of test compounds and positive control (Verapamil) were prepared in 100% DMSO. Thawing media (50 mL) used in the study consists of: 31 mLWilliams E medium (GIBCO Cat #12551-032); 15 mL isotonic percoll (GE Healthcare Cat #17-0891-09); 500 uL 100XGlutaMax (GIBCO Cat #35050); 750 uL HEPES (GIBCO Cat #15630-080); 2.5 mL FBS (Corning Cat #35-076*CVR); 50 uL human insulin (GIBCO Cat #12585-014) and 5 uL dexamethasone (NICPBP). Incubation media is made of Williams E medium supplemented with 1xGlutaMax. Both thawing medium and incubation medium (serum-free) were placed in a 37° C. water bath for at least 15 minutes prior to use. Compound stock solutions were diluted to 100 μM by combining 198 μL of 50% acetonitrile/50% water and 2 μL of 10 mM stock solution. Verapamil was use as positive control in the assay. Vials of cryopreserved hepatocytes were removed from storage and thawed in a 37° C. water bath with gentle shaking. Contents of the vial were poured into the 50 mL thawing medium conical tube. Vials were centrifuged at 100 g for 10 minutes at room temperature. Thawing medium was aspirated and hepatocytes were re-suspended with serum-free incubation medium to yield ˜1.5×10^6 cells/mL. Hepatocyte viability and density were counted using a Trypan Blue exclusion, and then cells were diluted with serum-free incubation medium to a working cell density of 0.5×10^6 viable cells/mL. Then, a portion of the hepatocytes at 0.5×10^6 viable cells/mL was boiled for 5 minutes prior to adding to the plate as negative control to eliminate the enzymatic activity so that little or no substrate turnover should be observed. The boiled hepatocytes were used to prepare negative samples. Aliquots of 198 μL hepatocytes were dispensed into each well of a 96-well non-coated plate. The plate was placed in the incubator on an orbital shaker at 500 rpm for approximately 10 minutes. Aliquots of 2 μL of the 100 μM test compound or positive control were added into respective wells of the non-coated 96-well plate to start the reaction. This assay was performed in duplicate. The plate was incubated in the incubator on an orbital shaker at 500 rpm for the designated time points. Twenty-five microliter of contents were transferred and mixed with 6 volumes (150 μL) of cold acetonitrile with IS (200 nM imipramine, 200 nM labetalol and 200 nM diclofenac) to terminate the reaction at time points of 0, 15, 30, 60, 90 and 120 minutes. Samples were centrifuged at 3,220 g for 25 minutes and aliquots of 150 μL of the supernatants were used for LC-MS/MS analysis. For data analysis, all calculations were carried out using Microsoft Excel. Peak areas were determined from extracted ion chromatograms. The in vitro half-life (t1/2) of parent compound was determined by regression analysis of the percent parent disappearance vs. time curve. The in vitro half-life (in vitro t1/2) was determined from the slope value: in vitro t1/2=0.693/k. […] Scaling factors for in vivo intrinsic clearance prediction using human hepatocytes are listed as: liver weight (g liver/kg body weight): 25.7; hepatocyte concentration (10^6 cells/g liver): 99; scaling factor: 2544.3.
# [2] = system: pooled human hepatocytes; assay: Human hepatocyte clearance study; assay type: in vitro ADME
# Description: as §1
# [3] = system: kynurenine production in HeLa cells; assay: Inhibition of kynurenine production in HeLa cells; assay type: cell-based, human; conditions: 48 h, HeLa cells, human IFN-γ 50 ng/mL, kynurenine read at 480 nm, read-out: IC50
# Description: (§2) The effect of compounds described herein on the inhibition of kynurenine production in HeLa cells (derived from human cervical cancer) was determined. HeLa cells were seeded into a 96-well culture plate at a density of 5×10^3 per well in RPMI1640/phenol red free media (from GIBCO) with 2 mM L-glutamine and 10% fetal bovine serum (FBS, from GIBCO) and grown overnight in a 37° C. incubator with 5% CO2. Twenty-four hours later, human IFN-γ (from GIBCO) (final concentration 50 ng/mL) and test compound solutions (serially diluted to different wells) were added to each well with a final volume of 200 uL per well. Forty-eight hours after incubation with compounds, 140 uL supernatant was taken from each well and was transferred to a new 96-well plate. Ten microliters of 6.1 N trichloroacetic acid were added into each well, mixed and incubated at 50° C. for 30 minutes. The reaction mixture was then centrifuged for 10 minutes at 2500 rpm and 100 uL of the supernatant per well was transferred to another 96 well plate and mixed with 100 uL of 2% (w/v) p-dimethylaminobenzaldehyde in acetic acid. The yellow color derived from kynurenine was measured at 480 nm using a SPECTRAmax i3 reader. Each compound concentration was done in triplicates and compound IC50 value was calculated using nonlinear regression using Graphpad Prism 5.0.
# The inhibitory activity of representative compounds described herein, compared with another IDO inhibitor, such as INCB-24360, Controls 1 and 2 are shown in Table 2.
# [4] = system: T cells and HeLa cells co-culture; assay: T cells and HeLa cells co-culture assay (IFN-gamma production); assay type: cell-based, human; conditions: CD3 T cells + HeLa cells, 72 hr, FIG. 4, read-out: EC50, production of IFN-gamma in the T cells and HeLa cells co-culture media
# Description: HeLa cells were seeded into 96-well plate (5000 cells per well in 100 μL of cell growth media DMEM with 10% FBS and 1% pen/strep) and incubated at 37° C. with 5% CO2. After overnight incubation, 200 μL of INF-gamma (50 ng/ml in growth media) was added to the plate and returned to incubator for another 48 hr. SepMater™-50 centrifuge tube was used to isolate PBMC from human donor according to manufacture's instruction (Stemcell). The CD3 T cell was then isolated from the PBMC using EasySep Human T cell isolation kit (Stemcell). Wash the 96-well plat twice with 200 μL of co-culture media (RPMI-1640+10% FBS+1% Pen/strep). Adjust the CD3 T cells density to 5×10^5 cells/ml with high dose anti-CD3/CD28 beads and co-culture medium (RPMI-1640+10% FBS+1% Pen/strep) and seed 200 μL/well into 96-well plate. Compound at different concentration was added to each well and the plate was incubated for a further 72 hr. Level of INF-gamma in the co-culture media (100 μL) was analyzed using the Human IFN-gamma ELISA Ready-SET-GO kit from eBioscience.
# [5] = system: kynurenine production in SKOV-3 cells; assay: Inhibition of kynurenine production in SKOV-3 cells; assay type: cell-based, human; conditions: FIG. 1
# Description: as §2, with “The reaction mixture was then centrifuged for 10 minutes at 2500 rpm and 100 uL of the supernatant per well was transferred to another 96 well plate and mixed with 100 uL of 2% (w/v) p-dimethylaminobenzaldehyde in acetic acid.” left out
# The effect of compounds described herein on the inhibition of kynurenine production in SKOV-3 cells (derived from human ovarian cancer) was determined using a similar experimental procedure as described in Example A. Exemplary results are shown in FIG. 1. […]
Compound,CLint scaled at 1 µM [1] [mL/min/kg],hepatocyte CLint at 1 µM [1] [µL/min/1e6 cells],half-life at 1 µM [1] [h],Human Hepatocyte Remaining Percentage @ 120 min ([2]; pooled human hepatocytes),"IC50 ([3]; Homo sapiens, HeLa) [nM]",EC50 ([4]; Homo sapiens) [nM],Human In vitro Clint (μL/min/10^6 cells) ([2]; pooled human hepatocytes),Human In vitro T1/2 ([2]; pooled human hepatocytes) [h],"Human Scale-up Clint ([2]; scaled up from in vitro t1/2, scaling factor 2544.3) [mL/min/kg]",IC50 [3] [nM],EC50 [4] [nM],IC50 [5] [nM]
CC(C)CN(c1ccc(C2(C(=O)O)CCC2)cc1Nc1ccc(C#N)cn1)C1CCOCC1 [Compound 86],13,5.2,4.47,75,0.3,,,,,,,
CC(C)CN(c1ncc(C2(C(=O)O)CCC2)cc1Nc1ccc(C#N)cc1)C1CCOCC1 [Compound 91],3.3,1.3,17.7,92,0.3,,,,,,,
CCN(c1ccc(C2(C(=O)O)CCC2)cc1Nc1ccc(Cl)cn1)C1CCOCC1 [Compound 115],9.3,3.6,6.35,83,0.1,,,,,,,
CCOc1ncc(Nc2cc(C3(C(=O)O)CCC3)ccc2N(CC)C2CCOCC2)cn1 [Compound 117],1.7,0.7,35.4,93,0.9,,,,,,,
CCN(c1ccc(C2(C(=O)O)CCC2)cc1Nc1ccc(C#N)cn1)C1CCOCC1 [Compound 118],8.5,3.3,6.93,85,0.2,,,,,,,
CCN(c1ncc(C2(C(=O)O)CCC2)cc1Nc1ccc(Cl)cc1)C1CCOCC1 [Compound 120],3.5,1.4,17.1,94,0.1,9.1,,,,,,
CCN(c1ncc(C2(C(=O)O)CCC2)cc1Nc1ccc(Cl)cn1)C1CCOCC1 [Compound 123],3.7,1.4,16.1,100,0.3,,,,,,,
CCN(c1ncc(C2(C(=O)O)CCC2)cc1Nc1ccc(C#N)cc1)C1CCOCC1 [Compound 125],2.2,0.9,26.6,97,0.5,,,,,,,
"CC(C)CN(CC(C)C)c1ccc(C(CC(=O)O)C(F)(F)F)cc1NC(=O)Nc1ccc(F)cc1F (centres unmarked) [Control 1, 3-(3-(3-(2,4-difluorophenyl)ureido)-4-(diisobutylamino)phenyl)-4,4,4-trifluorobutanoic acid, reference compound]",11,4.1,5.6,76,0.8,,,,,,,
"NS(=O)(=O)NCCNc1nonc1/C(=N/O)Nc1ccc(F)c(Br)c1 [INCB-24360, reference compound]",,,,35,,,19,1.22,48,6.9,41,10.2

# Further lines, results first:
CLint scaled at 1 µM [1] [mL/min/kg],hepatocyte CLint at 1 µM [1] [µL/min/1e6 cells],half-life at 1 µM [1] [h],Human Hepatocyte Remaining Percentage @ 120 min ([2]; pooled human hepatocytes),"IC50 ([3]; Homo sapiens, HeLa) [nM]",EC50 ([4]; Homo sapiens) [nM],Human In vitro Clint (μL/min/10^6 cells) ([2]; pooled human hepatocytes),Human In vitro T1/2 ([2]; pooled human hepatocytes) [h],"Human Scale-up Clint ([2]; scaled up from in vitro t1/2, scaling factor 2544.3) [mL/min/kg]",IC50 [3] [nM],EC50 [4] [nM],IC50 [5] [nM],Compound
5.7,2.2,10.4,80,0.4,,,,,,,,CC(C)CN(CC(C)C)c1ncc(C2(C(=O)O)CCC2)cc1Nc1ccc(Cl)cc1 [Compound 84]
13,5.1,4.58,81,0.3,,,,,,,,CC(C)CN(CC(C)C)c1ccc(C2(C(=O)O)CCC2)cc1Nc1ccc(Cl)cn1 [Compound 105]
18,7,3.3,69,0.4,,,,,,,,CC(C)CN(CC(C)C)c1ncc(C2(C(=O)O)CCC2)cc1Nc1ccc(C#N)cn1 [Compound 106]
14,5.5,4.2,76,0.4,,,,,,,,CC(C)CN(CC(C)C)c1ncc(C2(C(=O)O)CCC2)cc1Nc1ccc(Cl)cn1 [Compound 107]
16,6.4,3.6,71,1,,,,,,,,CC(C)N(CC1CC1)c1ncc(C2(C(=O)O)CCC2)cc1Nc1ccc(C#N)cn1 [Compound 110]
20,7.7,2.98,63,0.8,,,,,,,,CC(C)N(CC1CC1)c1ncc(C2(C(=O)O)CCC2)cc1Nc1ccc(Cl)cn1 [Compound 111]
